Results on one molecule are retold here after ChEMBL document CHEMBL1143940, “Eupalinin A isolated from Eupatorium chinense L. induces autophagocytosis in human leukemia HL60 cells” (Bioorg Med Chem, 2008).

For assay [1], the system named is HL-60. As to the kind of experiment: Induction of DNA fragmentation in human HL60 cells at 4 uM. The conditions noted are these: TDE = time-dependent effect. The format is functional, cell-based.
In assay [2] the test system is HL-60. As to the kind of experiment: Effect on caspase 9 activity in human HL60 cells at 4 uM. The format is functional, cell-based.
The test system of assay [3] is HL-60. As to the kind of experiment: Induction of apoptosis in human HL60 cells assessed as increase in phospho-Bcl2 at 4 uM after 12 hrs. The format is functional, cell-based.
Assay [4] relates to HL-60. Nature of the assay: Cytotoxicity against human HL60 cells. It is filed as functional, cell-based.
In assay [5] the test system is HL-60. As to the kind of experiment: Effect on caspase 8 activity in human HL60 cells at 4 uM. It is filed as functional, cell-based.
The target in assay [6] is RAC-alpha serine/threonine-protein kinase (Homo sapiens) (UniProt P31749). Nature of the assay: Increase in Akt phosphorylation in human HL60 cells at 4 uM after 48 hrs. It is filed as cell-based. The conditions noted are these: HL-60.
Sequence of RAC-alpha serine/threonine-protein kinase (Homo sapiens) (P31749 whole entry): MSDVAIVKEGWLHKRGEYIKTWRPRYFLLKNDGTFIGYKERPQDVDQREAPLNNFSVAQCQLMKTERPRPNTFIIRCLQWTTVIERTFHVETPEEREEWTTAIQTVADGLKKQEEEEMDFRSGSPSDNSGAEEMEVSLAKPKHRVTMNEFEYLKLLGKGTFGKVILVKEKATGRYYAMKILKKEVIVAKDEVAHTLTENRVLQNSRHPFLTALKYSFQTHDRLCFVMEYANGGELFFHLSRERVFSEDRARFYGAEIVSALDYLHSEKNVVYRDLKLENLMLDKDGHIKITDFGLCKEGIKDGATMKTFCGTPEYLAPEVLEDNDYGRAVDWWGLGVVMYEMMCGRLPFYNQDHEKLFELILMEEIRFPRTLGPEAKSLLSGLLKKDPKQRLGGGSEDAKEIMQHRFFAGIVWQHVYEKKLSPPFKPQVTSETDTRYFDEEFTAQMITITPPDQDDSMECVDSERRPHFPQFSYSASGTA
Assay [7] deals with HL-60. As to the kind of experiment: Effect on caspase 3 activity in human HL60 cells at 4 uM. The format is functional, cell-based.
The test system of assay [8] is HL-60. Nature of the assay: Induction of apoptosis in human HL60 cells at 4 uM in presence of 100 uM caspase inhibitor ZVADFMK by Trypan blue exclusion test. The format is functional, cell-based.
Assay [9] relates to HL-60. Nature of the assay: Induction of apoptosis in human HL60 cells assessed as increase in phospho-Bad levels at 4 uM after 12 hrs. It is filed as functional, cell-based.
For assay [10], the system named is HL-60. As to the kind of experiment: Increase in intracellular ROS level in human HL60 cells at 4 uM after 12 hrs. The format is functional, cell-based.
The test system of assay [11] is HL-60. Nature of the assay: Induction of autophagy in human HL60 cells at 4 uM in presence of PI3K inhibitor 3-methyladenine. It is filed as functional, cell-based.
Assay [12] deals with HL-60. As to the kind of experiment: Effect on caspase 2 activity in human HL60 cells at 4 uM. The format is functional, cell-based.
The test system of assay [13] is HL-60. As to the kind of experiment: Induction of apoptosis in human HL60 cells assessed as increase in phospho-Bcl-xl levels at 4 uM after 12 hrs. The format is functional, cell-based.
The subject of assay [14] is HL-60. As to the kind of experiment: Disruption of mitochondrial membrane potential in human HL60 cells at 4 uM after 12 hrs. The format is functional, cell-based.
Assay [15] deals with HL-60. Nature of the assay: Increase in p38 MAPK protein level in human HL60 cells at 4 uM by Western blot. The format is functional, cell-based. A general note: Immunoblotting shows a protein as a band on a membrane.
In assay [16] the test system is HL-60. As to the kind of experiment: Induction of autophagy in human HL60 cells at 4 uM after 12 hrs by MDC staining. The format is functional, cell-based.
In assay [17] the test system is HL-60. Nature of the assay: Induction of autophagy in human HL60 cells at 4 uM in presence of PI3K inhibitor LY-294002. The format is functional, cell-based.
The subject of assay [18] is HL-60. As to the kind of experiment: Induction of nuclear condensation in human HL60 cells at 4 uM after 24 hrs by Hoechst33342 staining method. The format is functional, cell-based.
Assay [19] concerns HL-60. Nature of the assay: Induction of autophagy in human HL60 cells assessed as increase in lipidated microtubule-associated-protein light chain 3 subunit II levels at 4 uM after 3 to 6 hrs. The format is functional, cell-based.
The test system of assay [20] is HL-60. Nature of the assay: Increase in JNK protein level in human HL60 cells at 4 uM by Western blot. It is filed as functional, cell-based.
Assay [21] relates to HL-60. As to the kind of experiment: Induction of cell death in human HL60 cells assessed as formation of autophagosomes at 4 uM after 6 hrs. The format is functional, cell-based.
Assay [22] has as its system HL-60. As to the kind of experiment: Induction of apoptosis in human HL60 cells assessed as decrease in Bax levels at 4 uM after 12 hrs. The format is functional, cell-based.

Structures are written as SMILES. pIC50: −log10 of the molar value. Calls of active or inactive are those of the source. The calls are words filed in the database; no cut-off is given here.

A word on the pIC50: it is the IC50 on a negative log10 scale, so that one unit is a factor of ten. As for `C=C1C(=O)O[C@@H]2/C=C(/C)[C@@H](OC(C)=O)C[C@H]3O[C@]3(C)C[C@@H](OC(=O)/C(=C/C)CO)[C@@H]12` [EUPALININ A], the Activity entry in assay [1] is “tde”. Also, the outcome in assay [2], in assay [3], in assay [5], in assay [6], in assay [7] and in assay [9] was Active. Further, the result in assay [10], in assay [11], in assay [12], in assay [13], in assay [14] and in assay [15] was Active. Also, the outcome in assay [16], in [17], in [18], in assay [19], in assay [20] and in [21] was Active. Moreover, the outcome in assay [22] was Active. The molecule further showed a pIC50 in assay [4] of 5.62. Further, the outcome in assay [8] was inactive.
